{"source": "patent US20080050755A1", "about": "“Method for screening for chemotherapeutic treatments for cancer” (priority 2000, published 2008)", "system": "Tcf/Lef reporter activity (endogenous β-catenin) in 293T cells", "assay": "Tcf/Lef reporter assay (pTOPFLASH/pFOPFLASH) in adriamycin-treated 293T cells", "assay_type": "cell-based", "details": "293T cells treated with 1 µg/ml adriamycin 8 hours after transfection for 16 hours; FIG. 6E", "source_text": "FIGS. 6A, 6B, 6C, and 6E illustrate that Siah-1 mediates p53-induced degradation of β-catenin. […] 293T cells were transiently co-transfected with an internal control (pEGFP) and the indicated plasmids. The amount of DNA in each transfection was kept constant by the addition of an appropriate amount of empty expression vector. Whole cell lysates were subjected to Western analysis. Blots were probed with mouse monoclonal antibodies to the Myc epitope tag (upper panel) and GFP (lower panel). FIG. 6C illustrate the pulse-chase analysis of ectopically expressed Myc-tagged β-catenin. […] Immunoprecipitated Myc-β-catenin was subjected to SDS-PAGE and dried gels were analyzed with a PhosphorImager. […]\nCell culture, transfection, reporter assay, co-immunoprecipitation and immmunoblotting. […] Luciferase and β-galactosidase activity was measured 24 hours after transfecton. Tcf/Lef reporter activity was determined as described. […] The whole cell extract (WCE) was immunoprecipitated using a mouse monoclonal antibody specific for the amino-terminus of pAPC (Ab-5, Oncogene Research) or a control mouse IgG, and associated Myc-Siah-1 protein was detected by immunoblotting using an anti-Myc monoclonal antibody (9E10). The pAPC in WCE (20 µg) and immunoprecipitates was detected using an anti-APC mouse monoclonal antibody (Ab-1, Oncogene Research). […]"}
{"smiles": "COc1cccc2c1C(=O)c1c(O)c3c(c(O)c1C2=O)C[C@@](O)(C(=O)CO)C[C@@H]3O[C@H]1C[C@H](N)[C@H](O)[C@H](C)O1", "note": "[adriamycin]", "values": [{"measurement": "Tcf/Lef reporter activity (TOP/FOP)", "result": "decreased Tcf/Lef reporter activity"}]}
